Reference: PMC12155096 (International Journal of Molecular Sciences, 2025)
Counter-ions that a name gives are not always drawn. Like-named read-outs stand apart in the source and are kept apart here.

How the values were obtained:
[1] = biological target: T1, human CYP2C9 (Homo sapiens, UniProt P11712); assay: biochemical
[2] = biological target: T2, human CYP2C19 (Homo sapiens, UniProt P33261); assay: biochemical
[3] = biological target: T3, human CYP1A2 (Homo sapiens, UniProt P05177)
T3 sequence (P05177 1-516): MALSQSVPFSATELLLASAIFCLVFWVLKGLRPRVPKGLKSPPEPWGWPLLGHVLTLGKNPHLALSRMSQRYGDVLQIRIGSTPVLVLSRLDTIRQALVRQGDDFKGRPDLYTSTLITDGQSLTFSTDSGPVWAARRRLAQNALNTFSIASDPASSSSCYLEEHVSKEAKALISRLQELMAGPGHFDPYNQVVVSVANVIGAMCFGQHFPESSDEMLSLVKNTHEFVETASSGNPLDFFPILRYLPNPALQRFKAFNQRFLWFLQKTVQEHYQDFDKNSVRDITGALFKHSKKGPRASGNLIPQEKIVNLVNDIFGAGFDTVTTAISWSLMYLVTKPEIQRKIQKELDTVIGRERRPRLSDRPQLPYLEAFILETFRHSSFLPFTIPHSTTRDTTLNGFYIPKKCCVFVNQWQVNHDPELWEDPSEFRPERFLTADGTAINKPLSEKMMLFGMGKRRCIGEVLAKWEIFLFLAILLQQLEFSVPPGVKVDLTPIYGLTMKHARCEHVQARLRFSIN

[4] = biological target: T1, human CYP2C9
[5] = biological target: human CYP2D6 (Homo sapiens, UniProt P10635)
[6] = biological target: T2, human CYP2C19
[7] = CYP2C9 AC50 (half-maximal activity concentration)
[8] = CYP2C19 AC50 (half-maximal activity concentration)
[9] = CYP2C9 IC50 (half-maximal inhibitory concentration)
[10] = CYP2C19 IC50 (half-maximal inhibitory concentration)

T1 sequence (P11712 whole entry): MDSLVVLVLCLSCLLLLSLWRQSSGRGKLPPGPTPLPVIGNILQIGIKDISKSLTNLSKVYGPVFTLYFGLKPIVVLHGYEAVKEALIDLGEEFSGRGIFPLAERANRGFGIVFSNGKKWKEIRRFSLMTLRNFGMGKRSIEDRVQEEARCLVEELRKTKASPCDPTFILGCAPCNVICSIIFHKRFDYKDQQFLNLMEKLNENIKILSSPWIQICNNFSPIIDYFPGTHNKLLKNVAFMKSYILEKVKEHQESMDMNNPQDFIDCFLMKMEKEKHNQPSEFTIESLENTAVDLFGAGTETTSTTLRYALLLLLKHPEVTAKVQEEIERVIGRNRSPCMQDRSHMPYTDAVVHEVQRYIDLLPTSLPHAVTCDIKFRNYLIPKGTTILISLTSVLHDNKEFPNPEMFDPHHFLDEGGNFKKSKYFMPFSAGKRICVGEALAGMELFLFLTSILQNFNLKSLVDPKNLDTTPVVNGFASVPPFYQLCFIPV
T2 sequence (P33261 whole entry): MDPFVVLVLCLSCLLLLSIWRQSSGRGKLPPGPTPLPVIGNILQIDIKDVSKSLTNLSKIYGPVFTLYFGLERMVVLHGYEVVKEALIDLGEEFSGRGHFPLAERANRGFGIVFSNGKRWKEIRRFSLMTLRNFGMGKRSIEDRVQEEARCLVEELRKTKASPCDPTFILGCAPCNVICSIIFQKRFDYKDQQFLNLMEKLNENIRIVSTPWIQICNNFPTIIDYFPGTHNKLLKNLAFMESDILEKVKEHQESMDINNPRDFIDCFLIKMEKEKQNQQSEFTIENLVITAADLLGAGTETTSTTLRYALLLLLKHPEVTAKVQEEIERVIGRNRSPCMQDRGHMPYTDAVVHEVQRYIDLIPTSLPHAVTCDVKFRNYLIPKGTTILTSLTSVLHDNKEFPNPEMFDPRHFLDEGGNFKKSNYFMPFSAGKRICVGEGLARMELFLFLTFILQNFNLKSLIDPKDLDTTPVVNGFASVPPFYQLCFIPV
Sequence of human CYP2D6 (P10635 whole entry): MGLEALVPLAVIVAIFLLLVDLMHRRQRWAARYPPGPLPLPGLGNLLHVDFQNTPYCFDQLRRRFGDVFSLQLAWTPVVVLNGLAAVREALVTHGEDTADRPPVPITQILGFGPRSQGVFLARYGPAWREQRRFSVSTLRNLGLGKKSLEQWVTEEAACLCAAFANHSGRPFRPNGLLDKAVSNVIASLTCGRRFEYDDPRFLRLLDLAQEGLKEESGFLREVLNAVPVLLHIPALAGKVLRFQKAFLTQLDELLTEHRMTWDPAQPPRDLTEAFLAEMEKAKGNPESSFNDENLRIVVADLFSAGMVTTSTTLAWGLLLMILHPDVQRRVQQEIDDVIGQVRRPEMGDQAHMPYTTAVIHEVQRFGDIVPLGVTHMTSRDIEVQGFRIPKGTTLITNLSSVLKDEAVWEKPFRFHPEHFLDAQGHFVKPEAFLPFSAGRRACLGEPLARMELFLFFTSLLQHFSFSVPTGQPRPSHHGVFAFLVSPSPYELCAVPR

CCCSP(=O)(OCC)SCCC [Ethoprop]
AC50 [1, 7]: 37 µM | AC50 [2, 8]: 20 µM

Cc1nc2ccccc2c(=O)n1-c1ccccc1Cl [Mecloqualone]
AC50 [1, 7]: 37.7 µM | AC50 [2, 8]: 2.88 µM

O=C(O)c1ccccc1Nc1cccc(C(F)(F)F)c1 [Flufenamic acid]
AC50 [1]: 23.9 ± 9.43 µM

CC1(C)C(C=C(Cl)Cl)C1C(=O)OC(C#N)c1cccc(Oc2ccccc2)c1 (stereo not drawn) [alpha-Cypermethrin]
AC50 [1, 7]: 3.56 µM | AC50 [2, 8]: 6.44 µM

Cc1cc(-c2cc(C)c(N)c(C)c2)cc(C)c1N [3,3'.5,5'-Tetramethylbenzidine]
IC50 [3]: 0.45 µM

CC(=O)Oc1ccc(C2(c3ccc(OC(C)=O)cc3)C(=O)Nc3ccccc32)cc1 [Oxyphenisatin acetate]
AC50 [1, 7]: 5.5 µM | AC50 [2, 8]: 11.9 µM

CCCc1ccc(OCC(=O)N2CCN(C(=O)COc3ccc(CCC)cc3OC)CC2)c(OC)c1 [Simetride]
IC50 [1]: 6.41 ± 6.45 µM | IC50 [2]: 17 ± 19.1 µM

COCC(=O)N(c1c(C)cccc1C)C(C)C(=O)OC (stereo not drawn) [Metalaxyl]
AC50 [1, 7]: 59.1 µM | AC50 [2, 8]: 38.4 µM

Sc1ncnc2nc[nH]c12 [6-Mercaptopurine]
AC50 [1, 7]: 22 µM | AC50 [2, 8]: 34.7 µM

COc1ccc(S(=O)(=O)N2c3ccc(Cl)cc3[C@](O)(c3ccccc3Cl)[C@@H]2C(=O)N2CCC[C@H]2C(N)=O)cc1OC [Relcovaptan]
IC50 [1]: 27.7 ± 9.09 µM

COC(=O)N[C@H](C(=O)N[C@@H](Cc1ccccc1)[C@@H](O)CN(Cc1ccc(-c2ccccn2)cc1)NC(=O)[C@@H](NC(=O)OC)C(C)(C)C)C(C)(C)C [Atazanavir]
IC50 [1]: 15.5 µM | IC50 [2]: 36.4 ± 6.55 µM

O=C(O)Cn1c(=O)n(Cc2ccc(Br)cc2F)c(=O)c2ccc(Cl)cc21 [Zenarestat]
AC50 [1]: 14.4 ± 0.97 µM

CC(=O)Oc1ccc2c(c1)CC[C@@H]1[C@@H]2CC[C@]2(C)[C@@H](O)CC[C@@H]12 [Estradiol acetate]
AC50 [2]: 20.6 ± 4.65 µM

CC1(C)C(C=C(Cl)Cl)C1C(=O)OC(C#N)c1cccc(Oc2ccccc2)c1 (stereo not drawn) [Cypermethrin]
AC50 [1, 7]: 11.9 µM | AC50 [2, 8]: 24.6 µM

COCCCC/C(=N\OCCN)c1ccc(C(F)(F)F)cc1 [fluvoxamine, reference compound]
IC50 ([3]; human): 0.2 µM

CCCOC(=O)Cc1ccc(OCC(=O)N(CC)CC)c(OC)c1 [Propanidid]
AC50 [1, 7]: 21.2 µM

CC(C)[C@H]1CC[C@H](C(=O)N[C@H](Cc2ccccc2)C(=O)O)CC1 [Nateglinide]
AC50 [1, 7]: 14 µM

O=C(O)Cc1ccccc1Oc1ccc(Cl)cc1Cl [Fenclofenac]
AC50 [1]: 29.7 ± 12.5 µM

O=C1c2ccccc2C(=O)C1C(=O)C(c1ccccc1)c1ccc(Cl)cc1 (stereo not drawn) [Cholorophacinone]
IC50 [4]: 0.9 µM

Cc1ccccc1C(=O)Nc1ccc(C(=O)N2CCCC(N(C)C)c3ccccc32)cc1 (stereo not drawn) [Mozavaptan]
CYP2C9 Efficacy (in parenthesis) ([4]; human): 26.02 ± 12.23 (-35 ± 0) % | IC50 [1, 9]: 26 µM

CCCOC(C(=O)OC1CCN(C)CC1)(c1ccccc1)c1ccccc1.Cl [Propiverine hydrochloride]
IC50 [5]: 6.81 µM

Fc1ccc(C(c2ccc(F)cc2)N2CCN(C/C=C/c3ccccc3)CC2)cc1 [Flunarizine]
AC50 [1, 7]: 14.9 µM

CCC1=C[C@@H]2CN(C1)Cc1c([nH]c3ccccc13)[C@@](C(=O)OC)(c1cc3c(cc1OC)N(C)[C@H]1[C@@](O)(C(=O)OC)[C@H](OC(C)=O)[C@]4(CC)C=CCN5CC[C@]31[C@@H]54)C2 [Vinorelbine tartrate]
IC50 [1, 9]: 21 µM

O=C1OC(c2ccc(O)c(S(=O)(=O)O)c2)(c2ccc(O)c(S(=O)(=O)O)c2)c2c(Br)c(Br)c(Br)c(Br)c21 [Sulfobromophthalein]
AC50 [1, 7]: 43.6 µM

O=C(OCC(COC(=O)c1cccnc1)(COC(=O)c1cccnc1)COC(=O)c1cccnc1)c1cccnc1 [Niceritrol]
IC50 [1]: 3.44 µM

CCCC(CCC)C(=O)O [Valproic acid]
AC50 [1, 7]: 47.3 µM

O=c1[nH]c2ccccc2n1C1CCN(CCCC(c2ccc(F)cc2)c2ccc(F)cc2)CC1 [Pimozide]
CYP1A2 AC50 (half-maximal activity concentration) [3]: Inactive

CCC(C)(C)c1ccc(O)cc1 [4-(2-Methylbutan-2-yl)phenol]
AC50 [1, 7]: 14.8 µM | AC50 [2, 8]: 4.21 µM

CC(=O)N(c1onc(C)c1C)S(=O)(=O)c1ccc(N)cc1 [Sulfisoxazole acetal]
AC50 [1, 7]: 25.8 µM

CC(C)C[C@H](NC(=O)[C@H](CCc1ccccc1)NC(=O)CN1CCOCC1)C(=O)N[C@@H](Cc1ccccc1)C(=O)N[C@@H](CC(C)C)C(=O)[C@@]1(C)CO1 [Carfilzomib]
IC50 [1, 9]: 29.2 µM

CC(C)(c1ccc(O)cc1)c1ccc(O)cc1 [Bisphenol A]
AC50 [1, 7]: 29.1 µM | AC50 [2, 8]: 20 µM

COc1cc([C@@H]2c3cc4c(cc3[C@H](O)[C@H]3COC(=O)[C@H]23)OCO4)cc(OC)c1OC [Podofilox]
IC50 [1]: 1.97 µM | IC50 [2, 10]: 3.71 µM

CCOC(=O)C1=C(C)NC(C)=C(C(=O)OC)C1c1cccc([N+](=O)[O-])c1 (stereo not drawn) [Nitrendipine]
IC50 [1, 9]: 0.88 µM | IC50 [2, 10]: 1.4 µM

Nc1nc2ccccc2n1Cc1ccc(F)cc1
CYP1A2 Efficacy (in parenthesis) [3]: 19.77 ± 4.14 (-57 ± 9) % | IC50 [3]: 19.8 µM | CYP2C19 Efficacy (in parenthesis) [6]: 17.62 ± 3.69 (-115 ± 18) % | IC50 [6]: 17.6 µM | CYP2D6 Efficacy (in parenthesis) [5]: 0.67 ± 0.04 (-102 ± 1) % | IC50 [5]: 0.67 µM

Cl[C@H]1[C@H](Cl)[C@@H](Cl)[C@@H](Cl)[C@H](Cl)[C@H]1Cl [Lindane]
AC50 [1, 7]: 43.2 µM | AC50 [2, 8]: 35.7 µM

CCCCCCCCCC(=O)O [Decanoic acid]
AC50 [1, 7]: 69.7 µM

CC(C)C[C@H]1C(=O)N2CCC[C@H]2[C@]2(O)O[C@](NC(=O)[C@@H]3C=C4c5cccc6[nH]c(Br)c(c56)C[C@H]4N(C)C3)(C(C)C)C(=O)N12 [Bromocriptine mesylate]
IC50 [1, 9]: 7.32 µM | IC50 [2, 10]: 20.8 µM

CN(CCOc1ccc(CC2SC(=O)NC2=O)cc1)c1ccccn1 (stereo not drawn) [Rosiglitazone maleate]
CYP2C19 AC50 (half-maximal activity concentration) [6]: Inconclusive inhibitor

CCC(=O)O[C@H]1CC[C@H]2[C@@H]3CCC4=CC(=O)CC[C@]4(C)[C@H]3CC[C@]12C [Testosterone propionate]
AC50 [1, 7]: 30.9 µM | AC50 [2, 8]: 26 µM

CC(C)(C)C(=O)OCOC(=O)[C@@H]1N2C(=O)[C@@H](NC(=O)[C@H](N)c3ccccc3)[C@H]2SC1(C)C [Pivampicillin]
IC50 [1, 9]: 23.6 µM

C[C@]12CCC(=O)C=C1CC[C@@H]1[C@@H]2CC[C@@]2(C)[C@H]1CC[C@]2(C)O [17-Methyltestosterone]
AC50 [1, 7]: 32.7 µM

COc1ccc(S(=O)(=O)Nc2nnc(CC(C)C)s2)cc1 [Glysobuzole]
AC50 [1, 7]: 12.5 µM

C[C@]12CCC(=O)C=C1[C@@H]1C[C@@H]1[C@H]1[C@@H]3[C@@H]4C[C@@H]4[C@@]4(CCC(=O)O4)[C@@]3(C)CC[C@@H]12 [Drospirenone]
AC50 [1]: 26.4 ± 7.81 µM | AC50 [2]: 1.17 ± 0.35 µM

CN1C(CSCC(F)(F)F)Nc2cc(Cl)c(S(N)(=O)=O)cc2S1(=O)=O (stereo not drawn) [Polythiazide]
AC50 [1, 7]: 14.9 µM | AC50 [2, 8]: 22 µM

CN(C)C(=O)C(CCN1CCC(O)(c2ccc(Cl)cc2)CC1)(c1ccccc1)c1ccccc1 [Loperamide hydrochloride]
AC50 [2, 8]: 40.5 µM

CCOC(=O)O[C@]1(C(=O)OCCl)CC[C@H]2[C@@H]3CCC4=CC(=O)C=C[C@]4(C)[C@H]3[C@@H](O)C[C@@]21C [Loteprednol etabonate, reference compound]
IC50 [1, 9]: 29.2 µM

CC(=O)O[C@]1(C(C)=O)CC[C@H]2[C@@H]3C=C(Cl)C4=CC(=O)[C@@H]5C[C@@H]5[C@]4(C)[C@H]3CC[C@@]21C [Cyproterone acetate]
CYP1A2 AC50 (half-maximal activity concentration) [3]: Inactive | CYP2C19 AC50 (half-maximal activity concentration) [6]: Inconclusive inhibitor | CYP2D6 AC50 (half-maximal activity concentration) [5]: Inactive | AC50 [1, 7]: 15 µM

O=C(O)Cn1c(C(=O)Nc2nc(-c3ccccc3Cl)cs2)cc2ccccc21 [Lintitript]
AC50 [1, 7]: 35.1 µM
